{
  "source": "patent US20210177779A1",
  "about": "“COMBINATIONS OF OPIOIDS AND N-ACYLETHANOLAMINES” (SciSparc Ltd., priority 2015, published 2021)",
  "key": {"Mice, strain ICR [1]": {"test_system": "Mice, strain ICR", "experiment": "Open field (OF) test, 15 minute session of spontaneous activity", "experimental": "Open Field (OF) tests were performed as follows—Fifteen minutes after test item/vehicle administration, mice were placed at the center of an open field box (43×43×40 cm) between 9 AM and 5 PM. On each side of the open field box, two frames placed at 2 and 5 cm height with 16 photocell beams per side ensure movement detection. The computer defined grid lines that divided the open field into two compartments: margin and center. Several variables were recorded during a 15 minute session of spontaneous activity including: time spent moving, traveled distance, time spent and number of visits to the central compartment."}, "Mice, strain ICR [2]": {"test_system": "Mice, strain ICR", "experiment": "Tail pinch test (modified Haffner's method)", "conditions": "first test 15 min after dosing"}},
  "data": [
    {"smiles": "COc1ccc2c3c1O[C@H]1C(=O)CC[C@@]4(O)[C@@H](C2)N(C)CC[C@]314", "note": "[oxycodone]", "values": [
      {"measurement": "Total distance traveled compared to vehicle control group (1M)", "setting": "Mice, strain ICR [1]; oxycodone 10 mg/kg IP (PEA 25 mg/kg where combined), dosed 15 min before test, 6M P<0.001, 8M P<0.05, FIG. 1, associated with irritation level", "value": "significantly higher"},
      {"measurement": "Average animal velocity compared to vehicle control group (1M)", "setting": "Mice, strain ICR [1]; oxycodone 10 mg/kg IP (PEA 25 mg/kg where combined), total distance (cm) / total moving time (sec), 6M P<0.001, 8M P<0.05, FIG. 2, associated with uncontrolled movement and confusion", "value": "significantly higher"},
      {"measurement": "Total distance traveled, effect of oxycodone (dose-dependent)", "setting": "Mice, strain ICR [1]; oxycodone 5 and 10 mg/kg IP compared to vehicle 1M, FIG. 1", "value": "significantly increased"},
      {"measurement": "Average animal velocity, effect of oxycodone (dose-dependent)", "setting": "Mice, strain ICR [1]; oxycodone 5 and 10 mg/kg IP compared to vehicle 1M, FIG. 2", "value": "significantly increased"},
      {"measurement": "Time after administration at which the analgesic effect began", "setting": "Mice, strain ICR [2]; high dose oxycodone 10 mg/kg IP (PEA 25 mg/kg where combined), FIG. 3A", "value": 15, "unit": "min"},
      {"measurement": "Time after administration at which the analgesic effect began", "setting": "Mice, strain ICR [2]; low dose oxycodone 5 mg/kg IP (PEA 25 mg/kg where combined), FIG. 3B", "value": 15, "unit": "min"}
    ]}
  ]
}
